Source: ChEMBL document CHEMBL1121563, “8-Hydroxyanthracyclinones from epsilon-rhodomycinone” (1980)
The source made the active and inactive calls. The rule behind the calls is not given here.

Experiments:
Escherichia coli [1] = assay: Compound is evaluated for lambda-phage induction activity in Escherichia coli (dose at 50 ug/mL); assay type: functional
Escherichia coli [2] = assay: Compound is evaluated for lambda-phage induction activity in Escherichia coli (dose at 3.1 ug/mL); assay type: functional
Escherichia coli [3] = assay: Compound is evaluated for lambda-phage induction activity in Escherichia coli (dose at 25 ug/mL); assay type: functional
Escherichia coli [4] = assay: Compound is evaluated for lambda-phage induction activity in Escherichia coli (dose at 6.2 ug/mL); assay type: functional
Escherichia coli [5] = assay: Compound is evaluated for lambda-phage induction activity in Escherichia coli (dose at 12.5 ug/mL); assay type: functional
Escherichia coli [6] = assay: Compound is evaluated for lambda-phage induction activity in Escherichia coli (dose at 50 ug/mL); Toxic to culture; assay type: functional
Escherichia coli [7] = assay: Compound is evaluated for lambda-phage induction activity in Escherichia coli (dose at 0.8 ug/mL); assay type: functional
Escherichia coli [8] = assay: Compound is evaluated for lambda-phage induction activity in Escherichia coli (dose at 1.6 ug/mL); assay type: functional
Bacillus subtilis = assay: Compound was tested for its lambda-phage induction activity against Bacillus subtilis in a disk plate assay at concentration of dose of 0.8 ug/mL; Active; assay type: functional, organism-based
Escherichia coli [9] = assay: Compound is evaluated for lambda-phage induction activity in Escherichia coli (dose at 6.2 ug/mL); Toxic to culture; assay type: functional

| Compound | Activity (Escherichia coli [1]) | Activity (Escherichia coli [2]) | Activity (Escherichia coli [3]) | Activity (Escherichia coli [4]) | Activity (Escherichia coli [5]) | Activity (Escherichia coli [6]) | Activity (Escherichia coli [7]) | Activity (Escherichia coli [8]) | Activity (Bacillus subtilis) | Activity (Escherichia coli [9]) |
| --- | --- | --- | --- | --- | --- | --- | --- | --- | --- | --- |
| CC[C@H]1CCc2c(O)c3c(c(O)c2[C@H]1C(=O)OC)C(=O)c1cccc(O)c1C3=O | 2.4 | 1 | 1.8 | 1.3 | 1.2 | – | – | – | – | – |
| CCC1=CCc2c(O)c3c(c(O)c2[C@H]1C(=O)OC)C(=O)c1cccc(O)c1C3=O | 13.4 | – | 9.3 | 2.8 | 6 | – | – | – | – | – |
| CC[C@]12O[C@H]1Cc1c(O)c3c(c(O)c1[C@H]2C(=O)OC)C(=O)c1cccc(O)c1C3=O | 2.9 | 1.2 | 1.9 | 1.3 | 1.5 | – | – | – | – | – |
| CC[C@@]12O[C@@H]1Cc1c(O)c3c(c(O)c1[C@H]2C(=O)OC)C(=O)c1cccc(O)c1C3=O | 3 | 1.2 | 2 | 1.4 | 1.1 | – | – | – | – | – |
| CC[C@@]1(O)C[C@H](O)c2c(O)c3c(c(O)c2[C@H]1C(=O)OC)C(=O)c1cccc(O)c1C3=O | – | – | 1.8 | – | 1.5 | 2.9 | – | – | – | – |
| CC(=O)[C@]1(O)Cc2c(O)c3c(c(O)c2[C@@H](O[C@H]2C[C@H](N)[C@H](O)[C@H](C)O2)C1)C(=O)c1c(O)cccc1C3=O [CARUBICIN] | – | 6.2 | – | 7 | – | – | 2.2 | 3 | Active | – |
| COc1cccc2c1C(=O)c1c(O)c3c(c(O)c1C2=O)C[C@@](O)(C(C)=O)C[C@@H]3O[C@H]1C[C@H](N)[C@H](O)[C@H](C)O1 [DAUNORUBICIN] | – | 11.9 | – | – | – | – | 3.1 | 5.3 | Active | 11.1 |
